Our source for the IC50 values is patent US8648103B2, “Nitrogen-containing aromatic heterocyclyl compound” (Daiichi Sankyo Company, Limited, priority 2008, dated 2014).

The first test has as its system Human subcutaneous adipocytes. Briefly: Adipocyte lipolysis assay (suppression of isoproterenol-stimulated fatty acid release). The format is cell-based. As to conditions: Homo sapiens, Adipocyte; test compound concentration giving 50% fatty acid concentration reduction percentage in culture supernatant; 1 μM isoproterenol, 5 hours incubation; reduction by 100 μM nicotinic acid set at 100%. The source says: The suppressive or promoting activity of a test compound on the lipolysis of neutral fat can be assayed according to an adipocyte lipolysis assay as a cell line assay. If a beta adrenoceptor is stimulated with isoproterenol or the like in adipocytes, lipolysis action in which neutral fat accumulated in the cells is decomposed into fatty acid and glycerol can be promoted, and as a result, the amount of such fatty acid or glycerol released out of the cells can be increased. When a test compound that suppresses lipolysis is added to adipocytes, lipolysis-promoting action by isoproterenol stimulation is reduced, and the concentration of fatty acid or glycerol in a medium is decreased. Accordingly, the suppressive activity of a test compound on lipolysis can be assayed by measuring the reduction percentage of the fatty acid concentration or glycerol concentration in a culture supernatant. Likewise, the promoting activity of a test compound on lipolysis can be assayed by measuring the increase percentage of the fatty acid concentration or glycerol concentration in a medium.
• (1) Human subcutaneous adipocytes disseminated onto a 96 well (Dainippon Sumitomo Pharma Co., Ltd.: F-SA-1096) • (2) Adipocyte Maintenance Medium (Dainippon Sumitomo Pharma Co., Ltd.: AM 1) • (3) Lipolysis assay buffer [137 mM NaCl, 5 mM KCl, 4.2 mM NaHCO3, 1.3 mM CaCl2, 0.5 mM KH2PO4, 0.5 mM MgCl2, 0.5 mM MgSO4, 5 mM Glucose, 20 mM Hepes (pH 7.4), 1% BSA, 1 μM Isoproterenol] • (4) NEFA-C Test Wako (Wako Pure Chemical Industries, Ltd.) Preparation of Screening Materials
In this operation, the actual concentration of the test compound in the buffer was 1/1000 of the above-described concentration.
The above-described subcutaneous adipocytes were cultured in 200 μL of an Adipocyte Maintenance Medium in each well for 7 days. During this culturing operation, the medium was exchanged with a fresh one every 3 days. The medium was exchanged by discarding 100 μL of the medium in each well and then adding 100 μL of a fresh Adipocyte Maintenance Medium to the well. Thereafter, the adipocytes were washed with a Lipolysis assay buffer. Subsequently, 50 μL of a Lipolysis assay buffer that contained the above-described test compound was added to each well, and it was then incubated for 5 hours. In order to obtain the measurement value of the test compound in each concentration, 5 wells on a 96-well plate were used with respect to each concentration. As a positive control of a compound having lipolysis suppressive activity, nicotinic acid was used with reference to a previous report [Green A et. al., J. Biol. Chem., 1992, 267(5), 3223-9].
40 μL of a culture supernatant was extracted from each well, and the fatty acid concentration in the supernatant was then measured. Such fatty acid concentration was measured as follows, using the above-described NEFA-C Test Wako. 80 μL of liquid A included in the kit was added to 40 μL of the culture supernatant extracted from each well, and the obtained mixture was then incubated at 37° C. for 10 minutes. Thereafter, 160 μL of liquid B was added, and the obtained mixture was further incubated at 37° C. for 10 minutes. Thereafter, the absorbance at a wavelength of 550 nm was measured. At the same time, a standard fatty acid solution included in the kit was diluted to prepare a dilution series having a volume of 40 μL. According to the same operations as described above, liquid A and liquid B were added, and the absorbance was then measured. In accordance with instructions included with the kit, a calibration curve was prepared. Based on the thus prepared calibration curve, the fatty acid concentration in the culture supernatant was calculated. The reduction percentage of the fatty acid concentration was calculated with the following formula, setting the reduction percentage obtained by addition of 100 μM (final concentration) of nicotinic acid at 100%. […]
For the molecule `CCn1cc(NC(=O)C(F)Cc2cnc(-c3ccc(O)cc3)s2)c(C(=O)O)c1` (racemic) [Example 22, 4-{3-[2-(4-Hydroxyphenyl)thiazol-5-yl]-2-fluoropropanoyl}amino-1-ethylpyrrole-3-carboxylic acid], inhibition was half-maximal at 29 nM (IC50). In turn, `Cn1cc(NC(=O)CCc2ccc(-c3ccc(O)cc3)cc2)c(C(=O)O)c1` [Example 1, 4-{3-[4-(4-Hydroxyphenyl)phenyl]propanoyl}amino-1-methylpyrrole-3-carboxylic acid] had an IC50 of 1100 nM.

The molecule `Cn1cc(NC(=O)CCc2ccc3c(Cl)c(O)ccc3c2)c(C(=O)O)c1` [Example 2, 4-[3-(5-Chloro-6-hydroxy-2-naphthyl)propanoyl]amino-1-methylpyrrole-3-carboxylic acid] returned an IC50 of 535 nM.

`Cn1cc(NC(=O)CCc2nc(-c3ccc(O)cn3)no2)c(C(=O)O)c1` [Example 3, 4-{3-[(5-Hydroxypyridin-2-yl)-1,2,4-oxadiazol-5-yl]propanoyl}amino-1-methylpyrrole-3-carboxylic acid] registered an IC50 of 7 nM. Still for that read-out and setting: as for `Cn1cc(NC(=O)CCc2cnc(-c3ccc(O)cc3)o2)c(C(=O)O)c1` [Example 4, 4-{3-[2-(4-Hydroxyphenyl)oxazol-5-yl]propanoyl}amino-1-methylpyrrole-3-carboxylic acid], the figure is 232 nM.

Take `Cn1cc(NC(=O)CCc2cnc(-c3ccccc3)s2)c(C(=O)O)c1` [Example 5, 4-{3-(2-Phenylthiazol-5-yl)propanoyl}amino-1-methylpyrrole-3-carboxylic acid]: inhibition was half-maximal at 663 nM (IC50).

`Cn1cc(NC(=O)CCc2cnc(-c3ccc(O)cc3)s2)c(C(=O)O)c1` [Example 6, 4-{3-[2-(4-Hydroxyphenyl)thiazol-5-yl]propanoyl}amino-1-methylpyrrole-3-carboxylic acid] came in with an IC50 of 24 nM. Compared with the last molecule, the IC50 is about 28-fold lower. Still for that read-out and setting: as for `Cn1cc(NC(=O)CCc2sc(-c3ccccc3)nc2Cl)c(C(=O)O)c1` [Example 7, 4-[3-(4-Chloro-2-phenylthiazol-5-yl)propanoyl]amino-1-methylpyrrole-3-carboxylic acid], the figure is 1500 nM; as for `Cn1cc(NC(=O)CCc2sc(-c3ccc(O)cc3)nc2Cl)c(C(=O)O)c1` [Example 8, 4-{3-[4-Chloro-2-(4-hydroxyphenyl)thiazol-5-yl]propanoyl}amino-1-methylpyrrole-3-carboxylic acid], 76 nM. Still for that read-out and setting: to `Cn1cc(NC(=O)CCc2cnc(-c3ccc(O)c(F)c3)s2)c(C(=O)O)c1` [Example 9, 4-{3-[2-(4-Hydroxy-3-fluorophenyl)thiazol-5-yl]propanoyl}amino-1-methylpyrrole-3-carboxylic acid] belongs 125 nM; to `Cn1cc(NC(=O)CCc2cnc(-c3ccc(O)c(Cl)c3)s2)c(C(=O)O)c1` [Example 10, 4-{3-[2-(3-Chloro-4-hydroxyphenyl)thiazol-5-yl]propanoyl}amino-1-methylpyrrole-3-carboxylic acid], 151 nM.

As to `CCCCn1cc(NC(=O)CCc2cnc(-c3ccc(O)cn3)o2)c(C(=O)O)c1` [Example 11, 4-{3-[2-(5-Hydroxypyridin-2-yl)oxazol-5-yl]propanoyl}amino-1-butylpyrrole-3-carboxylic acid], the IC50 came to 88 nM. Same read-out and setting: to `CCn1cc(NC(=O)CCc2nc(-c3ccc(O)cc3)no2)c(C(=O)O)c1` [Example 12, 4-{3-[3-(4-Hydroxyphenyl)-1,2,4-oxadiazol-5-yl]propanoyl}amino-1-ethylpyrrole-3-carboxylic acid] belongs 29 nM. On the same count and under the same terms, as for `CCn1cc(NC(=O)CCc2cnc(-c3ccc(O)cc3)s2)c(C(=O)O)c1` [Example 13, 4-{3-[2-(4-Hydroxyphenyl)thiazol-5-yl]propanoyl}amino-1-ethylpyrrole-3-carboxylic acid], the figure is 40 nM; as for `O=C(CCc1cnc(-c2ccccc2)s1)Nc1cn(CCF)cc1C(=O)O` [Example 14, 4-[3-(2-Phenylthiazol-5-yl)propanoyl]amino-1-(2-fluoroethyl)pyrrole-3-carboxylic acid], 255 nM; as for `O=C(CCc1nc(-c2ccc(O)cn2)no1)Nc1cn(Cc2cc(F)cc(F)c2)cc1C(=O)O` [Example 15, 4-{3-[(5-Hydroxypyridin-2-yl)-1,2,4-oxadiazol-5-yl]propanoyl}amino-1-(3,5-difluorobenzyl)pyrrole-3-carboxylic acid], 2 nM. Still for that read-out and setting: to `O=C(CCc1nc(-c2ccc(O)cc2)no1)Nc1cn(Cc2cc(F)cc(F)c2)cc1C(=O)O` [Example 16, 4-{3-[(4-Hydroxyphenyl)-1,2,4-oxadiazol-5-yl]propanoyl}amino-1-(3,5-difluorobenzyl)pyrrole-3-carboxylic acid] belongs 29 nM; to `CCCCn1cc(C(=O)O)c(NC(=O)CCc2nc(-c3ccc(O)cn3)no2)n1` [Example 17, 5-{3-[(5-Hydroxypyridin-2-yl)-1,2,4-oxadiazol-5-yl]propanoyl}amino-2-butylpyrazol-4-carboxylic acid], 49 nM; to `COCCCn1cc(NC(=O)CCc2cnc(-c3ccc(O)cc3)s2)c(C(=O)O)c1` [Example 18, 4-{3-[2-(4-Hydroxyphenyl)thiazol-5-yl]propanoyl}amino-1-(3-methoxypropyl)pyrrole-3-carboxylic acid], 9 nM.

In turn, `CCn1cc(NC(=O)CCc2cnc(-c3ccc(O)cc3C)s2)c(C(=O)O)c1` [Example 19, 4-{3-[2-(4-Hydroxy-2-methylphenyl)thiazol-5-yl]propanoyl}amino-1-ethylpyrrole-3-carboxylic acid] came in with an IC50 of 93 nM. This IC50 is about 10-fold higher than that of the molecule before. The same measure, in the same setting: to `CCn1cc(NC(=O)CCc2sc(-c3ccc(O)cc3O)nc2Cl)c(C(=O)O)c1` [Example 21, 4-{3-[4-Chloro-2-(2,4-dihydroxyphenyl)thiazol-5-yl]propanoyl}amino-1-ethylpyrrole-3-carboxylic acid] belongs 41 nM. On the same count and under the same terms, as for `CCn1cc(NC(=O)CCn2cnc(-c3ccccc3)c2C)c(C(=O)O)c1` [Example 24, 4-{3-(4-Phenyl-5-methylimidazol-1-yl)propanoyl}amino-1-ethylpyrrole-3-carboxylic acid], the figure is 20 nM. Still for that read-out and setting: to `CCn1cc(NC(=O)C(F)Cc2cnn(-c3ccccc3)c2C)c(C(=O)O)c1` (centres unmarked) [Example 26, 4-[2-Fluoro-3-(5-methyl-1-phenylpyrazol-5-yl)propanoyl]amino-1-ethylpyrrole-3-carboxylic acid] belongs 10 nM. Take `CCc1c(CC(F)C(=O)Nc2cn(CC)cc2C(=O)O)cnn1-c1ccccc1` (centres unmarked) [Example 27]: the IC50 came to 36 nM. The same measure, in the same setting: as for `CCc1c(-c2ccccc2)ncn1CCC(=O)Nc1cn(CC)cc1C(=O)O` [Example 28, 4-{3-(4-Phenyl-5-ethylimidazol-1-yl)propanoyl}amino-1-ethylpyrrole-3-carboxylic acid], the figure is 19 nM; as for `CCn1cc(NC(=O)CCc2cnn(-c3ccccc3)c2C2CC2)c(C(=O)O)c1` [Example 29], 42 nM; as for `CCn1cc(NC(=O)C(F)Cc2cnn(-c3ccccc3)c2C2CC2)c(C(=O)O)c1` (centres unmarked) [Example 30], 42 nM.

The same test, now with this note: test compound concentration giving 50% fatty acid concentration reduction percentage in culture supernatant; 1 μM isoproterenol, 5 hours incubation; reduction by 100 μM nicotinic acid set at 100%.
Take `CCn1cc(NC(=O)C(F)Cc2cnc(-c3ccc(O)cc3)s2)c(C(=O)O)c1` (single isomer, unassigned; (+)) [Example 23b, (+)-4-{3-[2-(4-Hydroxyphenyl)thiazol-5-yl]-2-fluoropropanoyl}amino-1-ethylpyrrole-3-carboxylic acid]: it took 103 nM to reach half-maximal inhibition (IC50). For `CCn1cc(NC(=O)C(F)Cc2cnc(-c3ccc(O)cc3)s2)c(C(=O)O)c1` (single isomer, unassigned; (-)) [Example 23a, (−)-4-{3-[2-(4-Hydroxyphenyl)thiazol-5-yl]-2-fluoropropanoyl}amino-1-ethylpyrrole-3-carboxylic acid], the IC50 was 15 nM.

What is called IC50 is the concentration needed to halve the response being measured.
